Laboratory results taken from US10086030B2, “Use of composition in preparing health care products or medicines for preventing and treating allergic diseases” (JIANGZHONG PHARMACEUTICAL CO., LTD., priority 2012, dated 2018).
Where “and” joins values, the source holds several entries; their conditions need not be identical. Equal values may be shown once.

Experiments:
[1] = tested on: allergic asthma in rats caused by OVA; assay: Allergic asthma in rats caused by OVA: latent period of asthma, serum IL-4 and IFN-γ, EOS content in lung tissues; format: in vivo, SD rats; conditions: dexamethasone 0.5 mg/kg; for latent period of asthma, Before dosing: before dosing (baseline)
[2] = tested on: allergic asthma in rats caused by OVA; assay: as above; format: in vivo, SD rats
Description: Rats (half thereof were male and the other half female) were randomly divided into two groups, i.e., a blank control group of 10 animals and a modeling group of 70 animals. After a successful modeling, the rats were randomly divided into the following groups: a model control group, a positive drug group (dexamethasone group), and groups on the low, medium, and high doses of Composition 3, with 10 animals in each group.
On day 1, all animals except those in the blank control group were sensitized by intraperitoneal injection with 1 ml suspension containing 10 mg OVA, 200 mg Al(OH)3 dry powder, and 6×10^9 inactivated pertussis vaccines in physiological saline, and were sensitized once again on day 8.
The daily intake of the test drug Composition 3 composite powder recommended for one person was 24 g crude drug/60 kg body weight. On the basis thereof, the calculated daily intake for a rat was: low dose group: 1.0 g crude drug/kg body weight; medium dose group: 2.0 g crude drug/kg body weight; high dose group: 6.0 g crude drug/kg body weight, which were 2.5, 5 and 15 times the daily intake for a human, respectively. […] The volume of intragastric administration was calculated as 1.0 ml/100 g body weight. The model control group was intragastrically given an equivalent volume of 0.9% physiological saline 30 minutes before challenging; and the positive drug group was given dexamethasone at a dose of 0.5 mg/kg 30 min before each challenging^[2]. The groups on the low, medium and high doses of Composition 3 were each intragastrically given the respective dose of the test drug 30 min before each challenging. […]
A ZH-100 respiratory transducer was tied around the thoracic cage of each rat (the tension was adjusted to about 1 to 2 g so that the amplitude of the respiratory wave was 1 to 2 my). […] The acquisition system was turned on and a segment of normal respiratory wave was recorded. Then ultrasonic atomization with 1% OVA was applied for 20 min, and the respiratory waves of induced asthma in the rats were continuously recorded over 30 min after the atomization was initiated. Meanwhile, the period from the beginning of atomization to occurrence of symptoms (indicated by the first twitch) was visually observed and recorded as the latent period of asthma.
24 h after the final challenge, the rats were anaesthetized by intraperitoneal injection with 3% sodium pentobarbital (30 mg/kg). 5 to 10 ml blood was drawn, and serum IL-4 and IFN-γ levels were measured by ELISA.
The left lung tissues were cut off and fixed in 4% polyformaldehyde for 4 to 5 h, then washed with water, dehydrated with an alcohol gradient, and immersed and embedded in paraffine. HE staining was performed with a successive sectioning process, inflammatory changes in the tissues were observed, and EOS infiltration was counted. For each section, 10 fields were randomly chosen under a microscope at high magnification (×400) by the same observer, and the numbers of EOS infiltration around bronchus and vessels were calculated and averaged as the representative value for this section.
The daily intake of the test drug Composition 4 composite powder recommended for one person was 24 g crude drug/60 kg body weight. On the basis thereof, the calculated daily intake for a rat was: low dose group: 1.0 g crude drug/kg body weight; medium dose group: 2.0 g crude drug/kg body weight; high dose group: 6.0 g crude drug/kg body weight, which were 2.5, 5 and 15 times the daily intake for a human, respectively.

[3] = tested on: allergic asthma in guinea pigs caused by a mixed gas of Ach and His; assay: Allergic asthma in guinea pigs caused by a mixed gas of Ach and His: latent period, total IgE in serum and BALF, EOS content in lung tissues; format: in vivo; conditions: for latent period of asthma, Before dosing: before dosing (baseline)
Experimental: 2.2 Effect on Allergic Asthma in Guinea Pigs Caused by a Mixed Gas of Ach and his
On day 1, guinea pigs were placed in a closed 4 L glass bell jar, into which a 1:1 mixture solution of 2% Ach and 0.4% His was sprayed by ultrasonic atomization for 15 s. After completion of spraying, the latent period of asthma induced in the guinea pigs was recorded (i.e., the period from the end of the spraying to asthmatic onsets, extreme difficulty in breathing till twitching and falling down). Animals having a latent period of asthma longer than 120 s were excluded.
Dual-antibody sandwich radioimmunoassay was employed.

[4] = baseline, positive control group (dexamethasone 0.5 mg/kg)
[5] = positive control dexamethasone 0.5 mg/kg, 21 days
[6] = dexamethasone 0.5 mg/kg, Composition 6 study
[7] = dexamethasone 0.5 mg/kg, Composition 7 study
[8] = dexamethasone 0.5 mg/kg, Composition 5 study

C[C@@H]1C[C@H]2[C@@H]3CCC4=CC(=O)C=C[C@]4(C)[C@@]3(F)[C@@H](O)C[C@]2(C)[C@@]1(O)C(=O)CO [dexamethasone]
latent period of asthma, After dosing ([1]; Composition 6 study): 159.78 ± 20.27^ΔΔ | latent period of asthma, After dosing ([1]; Composition 7 study): 156.30 ± 21.44^ΔΔ | latent period of asthma, After dosing ([1]; Composition 8 study): 159.87 ± 20.38^ΔΔ | latent period of asthma, Before dosing ([1]; Composition 6 study): 74.67 ± 11.10 | latent period of asthma, Before dosing ([1]; Composition 7 study): 72.88 ± 10.96 | latent period of asthma, Before dosing ([1]; Composition 8 study): 73.66 ± 11.19 | EOS content in lung tissues ([1]; Composition 6 study): 28.40 ± 4.25^ΔΔ cells/HP | IFN-γ (serum) ([1]; Composition 6 study): 20.27 ± 4.89^ΔΔ pg/ml | IL-4 (serum) ([1]; Composition 6 study): 13.50 ± 4.32^ΔΔ pg/ml | EOS content in lung tissues ([1]; Composition 7 study): 35.64 ± 6.18^ΔΔ cells/HP | IFN-γ (serum) ([1]; Composition 7 study): 19.29 ± 4.04^ΔΔ pg/ml | IL-4 (serum) ([1]; Composition 7 study): 12.90 ± 4.67^ΔΔ pg/ml | EOS content in lung tissues ([1]; Composition 8 study): 28.39 ± 4.26^ΔΔ cells/HP | IFN-γ (serum) ([1]; Composition 8 study): 20.16 ± 4.96^ΔΔ pg/ml | IL-4 (serum) ([1]; Composition 8 study): 13.41 ± 4.21^ΔΔ pg/ml | latent period of asthma induced, Before dosing [2, 4]: 75.84 ± 12.36 and 74.66 ± 11.09 and 74.64 ± 11.03 | latent period of asthma induced, After dosing ([2]; positive control dexamethasone 0.5 mg/kg 30 min before each challenge, 21 days): 162.61 ± 17.88^ΔΔ and 159.77 ± 20.28^ΔΔ and 160.21 ± 20.32^ΔΔ | EOS content in lung tissues [2, 5]: 27.51 ± 4.31^ΔΔ cells/HP and 28.39 ± 4.26^ΔΔ cells/HP and 28.42 ± 4.24^ΔΔ cells/HP | serum IFN-γ [2, 5]: 20.51 ± 4.65^ΔΔ pg/ml and 20.26 ± 4.86^ΔΔ pg/ml and 20.27 ± 4.88^ΔΔ pg/ml | serum IL-4 [2, 5]: 12.88 ± 4.13^ΔΔ pg/ml and 13.51 ± 4.31^ΔΔ pg/ml and 13.50 ± 4.28^ΔΔ pg/ml | total IgE in BALF ([3]; BALF, positive control group, 0.5 mg/kg): 3.62 ± 0.62^ΔΔ U/L | latent period of asthma, After dosing ([3]; after dosing, dexamethasone 0.5 mg/kg, Composition 6 study): 155.78 ± 16.29^ΔΔ | latent period of asthma, After dosing ([3]; after dosing, dexamethasone 0.5 mg/kg, Composition 7 study): 150.46 ± 16.80^ΔΔ | latent period of asthma induced in guinea pigs, after dosing ([3]; after dosing, positive control group, 0.5 mg/kg): 156.77 ± 16.18^ΔΔ | latent period of asthma induced, Before dosing [3, 4]: 77.32 ± 13.95 and 75.63 ± 9.09 and 75.65 ± 9.10 | latent period of asthma induced in guinea pigs, before dosing ([3]; before dosing (after modeling), positive control group, 0.5 mg/kg): 74.63 ± 9.04 | latent period of asthma, Before dosing [3, 6]: 75.62 ± 9.10 | latent period of asthma, Before dosing [3, 7]: 70.68 ± 9.65 | EOS content in lung tissues [3, 8]: 30.77 ± 7.21^ΔΔ cells/HP | total IgE in BALF [3, 8]: 3.70 ± 0.73^ΔΔ U/L | total IgE in serum [3, 8]: 3.74 ± 1.32^ΔΔ U/L | EOS content in lung tissues [3, 6]: 30.80 ± 7.23^ΔΔ cells/HP | total IgE in BALF [3, 6]: 3.71 ± 0.70^ΔΔ U/L | total IgE in serum [3, 6]: 3.74 ± 1.30^ΔΔ U/L | EOS content in lung tissues [3, 7]: 31.70 ± 9.52^ΔΔ cells/HP | total IgE in BALF [3, 7]: 3.50 ± 0.78^ΔΔ U/L | total IgE in serum [3, 7]: 3.70 ± 1.26^ΔΔ U/L | EOS content in guinea pigs' lung tissues ([3]; lung tissues, positive control group, 0.5 mg/kg): 30.69 ± 7.35^ΔΔ cells/HP | EOS content in lung tissues [3, 5]: 31.78 ± 7.55^ΔΔ cells/HP and 30.79 ± 7.25^ΔΔ cells/HP | latent period of asthma induced, After dosing [3, 5]: 160.92 ± 19.72^ΔΔ and 155.77 ± 16.28^ΔΔ and 155.78 ± 16.24^ΔΔ | total IgE in BALF [3, 5]: 3.49 ± 0.82^ΔΔ U/L and 3.72 ± 0.72^ΔΔ U/L | total IgE in serum [3, 5]: 3.58 ± 1.19^ΔΔ U/L and 3.75 ± 1.31^ΔΔ U/L | total IgE in serum ([3]; serum, positive control group, 0.5 mg/kg): 3.65 ± 1.21^ΔΔ U/L
